pIC50: −log10 of the molar value.
Tests used:
Assay in all cases: PTP1B and TCPTP Inhibition Assay
Conditions in all cases: pH 6.3; 22 °C
[1] = molecular target: T1, Tyrosine-protein phosphatase non-receptor type 1 [1-298] (Homo sapiens, UniProt P18031)
T1 construct: 1-298
T1 sequence (P18031 whole entry): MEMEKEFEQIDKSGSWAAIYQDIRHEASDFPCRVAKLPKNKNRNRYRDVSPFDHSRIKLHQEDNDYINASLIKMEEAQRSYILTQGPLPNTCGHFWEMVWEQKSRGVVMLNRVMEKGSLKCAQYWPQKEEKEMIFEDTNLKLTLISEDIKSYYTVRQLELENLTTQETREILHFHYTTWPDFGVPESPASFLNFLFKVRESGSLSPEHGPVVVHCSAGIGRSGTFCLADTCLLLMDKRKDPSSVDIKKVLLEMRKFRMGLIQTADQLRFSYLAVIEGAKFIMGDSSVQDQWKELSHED

[2] = molecular target: T2, Tyrosine-protein phosphatase non-receptor type 2 (Homo sapiens, UniProt P17706)
T2 sequence (P17706 whole entry): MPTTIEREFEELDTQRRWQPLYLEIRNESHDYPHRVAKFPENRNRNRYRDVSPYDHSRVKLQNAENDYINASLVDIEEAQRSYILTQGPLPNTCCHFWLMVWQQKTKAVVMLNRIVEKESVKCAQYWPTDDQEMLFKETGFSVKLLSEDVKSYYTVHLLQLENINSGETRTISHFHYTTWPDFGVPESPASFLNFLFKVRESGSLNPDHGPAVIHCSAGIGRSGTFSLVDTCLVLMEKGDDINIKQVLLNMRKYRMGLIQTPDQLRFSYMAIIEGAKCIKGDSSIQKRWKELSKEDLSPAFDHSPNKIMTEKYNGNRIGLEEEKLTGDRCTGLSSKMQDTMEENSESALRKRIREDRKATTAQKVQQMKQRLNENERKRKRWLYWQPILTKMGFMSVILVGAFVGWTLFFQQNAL

[3] = molecular target: Tyrosine-protein phosphatase non-receptor type 2 [V121L] (Homo sapiens, UniProt P17706, V121L)
Chain of Tyrosine-protein phosphatase non-receptor type 2 [V121L] (P17706 as listed by the source V121L): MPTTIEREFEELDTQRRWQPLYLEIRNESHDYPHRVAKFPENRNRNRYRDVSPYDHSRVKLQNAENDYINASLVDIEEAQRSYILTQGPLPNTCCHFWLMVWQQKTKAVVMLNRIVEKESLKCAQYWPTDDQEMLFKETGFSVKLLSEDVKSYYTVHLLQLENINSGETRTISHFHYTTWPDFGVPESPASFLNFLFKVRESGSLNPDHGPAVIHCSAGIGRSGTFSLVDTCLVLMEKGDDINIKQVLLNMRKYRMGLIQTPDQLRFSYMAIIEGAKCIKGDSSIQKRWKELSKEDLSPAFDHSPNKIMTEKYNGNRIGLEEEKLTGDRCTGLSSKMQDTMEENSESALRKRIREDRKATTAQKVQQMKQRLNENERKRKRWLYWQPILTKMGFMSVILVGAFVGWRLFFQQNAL

[4] = molecular target: Tyrosine-protein phosphatase non-receptor type 1 [L119V] (Homo sapiens, UniProt P18031, L119V)
Chain of Tyrosine-protein phosphatase non-receptor type 1 [L119V] (P18031 1-298 L119V): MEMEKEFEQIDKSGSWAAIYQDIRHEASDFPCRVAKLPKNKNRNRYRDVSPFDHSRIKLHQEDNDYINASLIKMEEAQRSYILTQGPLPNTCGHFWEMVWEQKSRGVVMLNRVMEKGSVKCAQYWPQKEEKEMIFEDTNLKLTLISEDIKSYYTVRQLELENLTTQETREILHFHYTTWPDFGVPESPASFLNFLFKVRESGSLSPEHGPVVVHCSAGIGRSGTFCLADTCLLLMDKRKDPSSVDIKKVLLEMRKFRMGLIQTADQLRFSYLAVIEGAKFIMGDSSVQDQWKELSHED

O=P(O)(O)C(F)(F)c1ccc(CC(C/C=C/c2ccccc2)(c2ccccc2)n2nnc3ccccc32)cc1 (stereo not drawn) [({4-[(4E)-2-(1H-1,2,3-benzotriazol-1-yl)-2,5-diphenylpent-4-en-1-yl]phenyl}difluoromethyl)phosphonic acid]
pIC50 [1]: 6.96
pIC50 [2]: 7.02

COC(=O)c1ccc([C@@](C/C=C/c2ccccc2)(Cc2ccc(C(F)(F)P(=O)(O)O)cc2)n2nnc3ccccc32)cc1 [({4-[(4E)-2-(1H-1,2,3-benzotriazol-1-yl)-2-[4-(methoxycarbonyl)phenyl]-5-phenylpent-4-en-1-yl]phenyl}difluoromethyl)phosphonic acid]
pIC50 [2]: 7.06
pIC50 [3]: 7.62

Cc1noc(-c2ccc(C(C/C=C/c3ccccc3)(Cc3ccc(C(F)(F)P(=O)(O)O)cc3)C(=O)c3ccc(F)cc3)cc2)n1 (stereo not drawn) [[difluoro({4-[3-(4-fluorophenyl)-2-[4-(3-methyl-1,2,4-oxadiazol-5-yl)phenyl]-3-oxo-2-[(2E)-3-phenylprop-2-en-1-yl]propyl]phenyl})methyl]phosphonic acid]
pIC50 [1]: 6.79
pIC50 [4]: 5.72
pIC50 [2]: 5.80
pIC50 [3]: 6.86
